Reference: patent publication US11267802B2 (BEBETTER MED INC., priority 2015, dated 2022)

Key:
LOVO = test: Inhibition assay on tumor cell proliferation (CellTiter-Glo), LOVO; type: cell-based, Human; conditions: Homo sapiens; LOVO (wild-type EGFR), 72 hours, 10% bovine serum
Procedure: (§1) By using a CellTiter-Glo luminescence cell viability test kit (Promega, # G7572), the content of adenosine triphosphate (ATP) was determined to assess the cell viability.
(§2) Human colon cancer cell line LOVO and human non-small-cell lung cancer H358 express wild-type EGFR. Human non-small-cell lung cancer cell line HCC827 carries deletion mutation in exon 19 (ex19del). Those cell lines are purchased from Shanghai Fudan IBS Cell Resource Center and American Tissue Culture Collection (ATCC).
(§3) The assay procedure is as follows. The cells in a cell culture plate were digested with a pancreatic enzyme, re-suspended in a DPBS culture medium, and had the cell density counted by Scepter automated cytometer (Millipore # PHCC00000). The cells were diluted to a solution of 44,000 cells per ml. The cell solution with adjusted density was added to the cell assay plate at 90 microliters per well. The plate was placed in an incubator with 5% CO2 at 37° C. for 24 hours of incubation, and then added with different concentrations of subject compounds. The cells were incubated for 72 hours with the compounds in presence of 10% bovine serum. The content of ATP was determined by a CellTiter-Glo® Luminescent Cell Viability Assay kit (see the manufacturer's instruction for details) to evaluate cell-growth inhibition.
(§4) Briefly, 30 μl of CellTiter-Glo® reagent was added to each well, and then shaken for 10 minutes to induce cell lysis. The fluorescent signal was detected and recorded by Fluoroskan Ascent FL (Thermo). The max signal value was obtained from the cells treated by dimethyl sulfoxide for 72 hours. The min signal value was obtained from the medium alone (the number of the cells was 0). Inhibitory rate %=(max signal value−compound signal value)/(max signal value−min signal value)×100. The data was processed by GraphPad Prism V5.0 software (GraphPad Software, San Diego, Calif.). Sigmoidal dose-response curve fitting was performed to calculate the IC50 value.

H358 = test: Inhibition assay on tumor cell proliferation (CellTiter-Glo), H358; type: cell-based, Human; conditions: Homo sapiens, NCI-H358; H358 (wild-type EGFR), 72 hours, 10% bovine serum
Procedure: as §1, §2, §3, §4

EGFR T790M/L858R = target: T1, EGFR T790M/L858R (Homo sapiens, UniProt P00533, L858R/T790M); test: Mutant EGFR T790M/L858R activity inhibition assay (Caliper mobility shift); type: biochemical; conditions: read-out: enzyme activity inhibition (IC50) EGFR T790M/L858R
T1 construct: purchased Invitrogen PR8911A
Procedure: The assay procedure is as follows. […] 5 μl of the compound dissolved in 10% DMSO at a concentration of 5-fold of the final reaction concentration was added to a 384 well plate. 5 μl of 10% DMSO was used in a no-compound control well, while 5 μl of a kinase buffer was used in a no-enzyme activity control well. […] The conversion rate was read on Caliper EZ Reader II (Caliper Life Sciences). The conversion rate was then converted to inhibitory rate.
As used herein, “max” refers to the conversion rate of the DMSO no-compound control well, and “min” refers to the conversion rate of the no-enzyme activity control well. A curve was obtained by plotting the inhibitory rate as a function of the compound concentration. The XLFit excel add-in version 4.3.1 software was used to fit the curve and calculate the IC50. Inhibitory rate %=(max−conversion rate)/(max−min)×100.

H1975 = test: Inhibition assay on tumor cell proliferation (CellTiter-Glo), H1975; type: cell-based, Human; conditions: Homo sapiens, NCI-H1975; H1975 (L858R and T790M EGFR double mutation), 72 hours, 10% bovine serum

T1 sequence (P00533 25-1210 T790M/L858R): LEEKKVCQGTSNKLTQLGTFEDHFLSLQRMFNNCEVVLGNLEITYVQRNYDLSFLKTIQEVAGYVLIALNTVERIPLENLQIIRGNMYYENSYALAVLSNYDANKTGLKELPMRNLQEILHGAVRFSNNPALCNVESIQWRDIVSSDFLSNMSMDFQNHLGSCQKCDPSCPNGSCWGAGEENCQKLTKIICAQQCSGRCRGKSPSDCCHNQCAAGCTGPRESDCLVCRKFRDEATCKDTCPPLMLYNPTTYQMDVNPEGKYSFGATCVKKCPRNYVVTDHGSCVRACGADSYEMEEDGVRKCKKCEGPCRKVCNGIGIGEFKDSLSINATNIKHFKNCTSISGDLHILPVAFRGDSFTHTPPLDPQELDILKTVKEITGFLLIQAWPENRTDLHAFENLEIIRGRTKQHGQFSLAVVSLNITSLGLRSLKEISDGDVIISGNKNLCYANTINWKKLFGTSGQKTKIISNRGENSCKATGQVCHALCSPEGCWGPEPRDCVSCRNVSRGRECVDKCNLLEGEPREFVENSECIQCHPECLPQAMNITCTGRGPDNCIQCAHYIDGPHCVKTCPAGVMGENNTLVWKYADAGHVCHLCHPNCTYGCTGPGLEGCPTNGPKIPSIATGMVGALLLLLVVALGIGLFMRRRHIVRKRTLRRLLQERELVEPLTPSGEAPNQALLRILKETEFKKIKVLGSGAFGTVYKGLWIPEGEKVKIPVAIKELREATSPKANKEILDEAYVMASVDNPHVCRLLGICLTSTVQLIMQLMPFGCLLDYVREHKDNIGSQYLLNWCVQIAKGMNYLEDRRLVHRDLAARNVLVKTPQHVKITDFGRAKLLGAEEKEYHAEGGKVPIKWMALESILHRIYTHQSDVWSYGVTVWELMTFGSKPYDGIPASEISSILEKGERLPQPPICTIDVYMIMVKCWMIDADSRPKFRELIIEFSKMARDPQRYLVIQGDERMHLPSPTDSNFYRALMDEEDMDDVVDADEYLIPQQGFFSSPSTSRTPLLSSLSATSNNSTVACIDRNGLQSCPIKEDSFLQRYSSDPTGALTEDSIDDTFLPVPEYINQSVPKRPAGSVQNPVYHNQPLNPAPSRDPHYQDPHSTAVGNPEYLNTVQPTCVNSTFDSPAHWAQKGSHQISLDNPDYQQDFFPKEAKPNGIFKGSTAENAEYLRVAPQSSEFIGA

IC50 (LOVO) | IC50 (H358) | IC50 (EGFR T790M/L858R) | melting point | IC50 (H1975) | SMILES
> 1000 nM | 100 to 1000 nM | < 1 nM | 117 to 118 °C | < 10 nM | C=CC(=O)Nc1cc(Nc2nccc(-n3ccc4cc(OC)ccc43)n2)c(OC)cc1N(C)CCN(C)C [Compound 27, N-(2-((2-(dimethylamino)ethyl)(methyl)amino)-4-methoxy-5-((4-(5-methoxy-1H-indol-1-yl)pyrimidin-2-yl)amino)phenyl)acrylamide]
> 1000 nM | 100 to 1000 nM | < 1 nM | 164 to 165 °C | < 10 nM | C=CC(=O)Nc1cc(Nc2nccc(-n3ccc4ccc(F)cc43)n2)c(OC)cc1N(C)CCN(C)C [Compound 29, N-(2-((2-(dimethylamino)ethyl)(methyl)amino)-5-((4-(6-fluoro-1H-indol-1-yl)pyrimidin-2-yl)amino)-4-methoxyphenyl)acrylamide]
> 1000 nM | 100 to 1000 nM | < 1 nM | 59 to 61 °C | < 10 nM | C=CC(=O)Nc1cc(Nc2nccc(-n3ccc4cc(OCCOC)ccc43)n2)c(OC)cc1N(C)CCN(C)C [Compound 38, N-(2-((2-(dimethylamino)ethyl)(methyl)amino)-4-methoxy-5-((4-(5-(2-methoxyethoxy)-1H-indol-1-yl)pyrimidin-2-yl)amino)phenyl)acrylamide]
> 1000 nM | 100 to 1000 nM | < 1 nM | 183 to 185 °C | < 10 nM | C=CC(=O)Nc1cc(Nc2nccc(-n3c(=O)n(C)c4cc(C#N)ccc43)n2)c(OC)cc1N(C)CCN(C)C [Compound 52, N-(5-((4-(5-cyano-3-methyl-2-oxo-2,3-dihydro-1H-benzo[d]imidazol-1-yl)pyrimidin-2-yl)amino)-2-((2-(dimethylamino)ethyl)(methyl)amino)-4-methoxyphenyl)acrylamide]
> 1000 nM | > 1000 nM | 1 to 10 nM | 143.3 to 147.8 °C | < 10 nM | C=CC(=O)Nc1cc(Nc2ncc(OC)c(-n3ccc4ccccc43)n2)c(OC)cc1N(C)CCN(C)C [Compound 6, N-(5-((4-(1H-indol-1-yl)-5-methoxypyrimidin-2-yl)amino)-2-((2-(dimethylamino)ethyl)(methyl)amino)-4-methoxyphenyl)acrylamide]
> 1000 nM | 100 to 1000 nM | < 1 nM | 121.3 to 125.1 °C | < 10 nM | C=CC(=O)Nc1cc(Nc2nccc(-n3ccc4cc(C(N)=O)ccc43)n2)c(OC)cc1N(C)CCN(C)C [Compound 41, 1-(2-((5-acrylamido-4-((2-(dimethylamino)ethyl)(methyl)amino)-2-methoxyphenyl)amino)pyrimidin-4-yl)-1H-indole-5-carboxamide]
> 1000 nM | > 1000 nM | < 1 nM | 161 to 162 °C | 50 to 100 nM | C=CC(=O)Nc1cc(Nc2nccc(-n3ccc4ccccc43)n2)c(OC)cc1N1CC[C@@H](N(C)C)C1 [Compound 79, (R)—N-(5-((4-(1H-indol-1-yl)pyrimidin-2-yl)amino)-2-(3-(dimethylamino)pyrrolidin-1-yl)-4-methoxyphenyl)acrylamide]
> 1000 nM | 100 to 1000 nM | < 1 nM | 70 to 71 °C | < 10 nM | C=CC(=O)Nc1cc(Nc2nccc(-n3c(=O)n(C)c4cc(Cl)ccc43)n2)c(OC)cc1N(C)CCN(C)C [Compound 51, N-(5-(4-(5-chloro-3-methyl-2-oxo-2,3-dihydro-1H-benzo[d]imidazol-1-yl)pyrimidin-2-ylamino)-2-((2-(dimethylamino)ethyl)(methyl)amino)-4-methoxyphenyl)acrylamide]
> 1000 nM | 100 to 1000 nM | < 1 nM | 218 to 219 °C | < 10 nM | C=CC(=O)Nc1cc(Nc2nccc(-n3ccc4cc(O)ccc43)n2)c(OC)cc1N(C)CCN(C)C [Compound 36, N-(2-((2-(dimethylamino)ethyl)(methyl)amino)-5-((4-(5-hydroxy-1H-indol-1-yl)pyrimidin-2-yl)amino)-4-methoxyphenyl)acrylamide]
> 1000 nM | > 1000 nM | 1 to 10 nM | 189.7 to 191.8 °C | 50 to 100 nM | CC#CC(=O)Nc1cc(Nc2nccc(-n3ccc4ccccc43)n2)c(OC)cc1N(C)CCN(C)C [Compound 73, N-(5-((4-(1H-indol-1-yl)pyrimidin-2-yl)amino)-2-((2-(dimethylamino)ethyl)(methyl)amino)-4-methoxyphenyl)but-2-ynamide]
> 1000 nM | > 1000 nM | 1 to 10 nM | 151 to 153 °C | < 10 nM | C=CC(=O)Nc1cc(Nc2nccc(-n3ccc4ccccc43)n2)c(OC)cc1N(C)CCN1CCCC1 [Compound 80, N-(5-(4-(1H-indol-1-yl)pyrimidin-2-ylamino)-4-methoxy-2-(methyl(2-(pyrrolidin-1-yl)ethyl)amino)phenyl)acrylamide]
> 1000 nM | > 1000 nM | 1 to 10 nM | 142 to 144 °C | 10 to 50 nM | C=CC(=O)Nc1cc(Nc2nccc(-n3cc(Cl)c4ccccc43)n2)c(OC)cc1N(C)CCN(C)C [Compound 46, N-(5-((4-(3-chloro-1H-indol-1-yl)pyrimidin-2-yl)amino)-2-((2-(dimethylamino)ethyl)(methyl)amino)-4-methoxyphenyl)acrylamide]
> 1000 nM | 100 to 1000 nM | 1 to 10 nM | 161 to 162 °C | < 10 nM | C=CC(=O)Nc1cc(Nc2ncc(C(F)(F)F)c(-n3ccc4ccccc43)n2)c(OC)cc1N(C)CCN(C)C [Compound 5, N-(5-((4-(1H-indol-1-yl)-5-(trifluoromethyl)pyrimidin-2-yl)amino)-2-((2-(dimethylamino)ethyl)(methyl)amino)-4-methoxyphenyl)acrylamide]
> 1000 nM | 100 to 1000 nM | < 1 nM | 165.5 to 166.5 °C | < 10 nM | C=CC(=O)Nc1cc(Nc2nccc(-n3ccc4c(F)cccc43)n2)c(OC)cc1N(C)CCN(C)C [Compound 30, N-(2-((2-(dimethylamino)ethyl)(methyl)amino)-5-((4-(4-fluoro-1H-indol-1-yl)pyrimidin-2-yl)amino)-4-methoxyphenyl)acrylamide]
> 1000 nM | 100 to 1000 nM | < 1 nM | 127 to 128 °C | < 10 nM | C=CC(=O)Nc1cc(Nc2nccc(-n3ccc4cc(C#N)ccc43)n2)c(OC)cc1N(C)CCN(C)C [Compound 33, N-(5-((4-(5-cyano-1H-indol-1-yl)pyrimidin-2-yl)amino)-2-((2-(dimethylamino)ethyl)(methyl)amino)-4-methoxyphenyl)acrylamide]
> 1000 nM | 100 to 1000 nM | 1 to 10 nM | 154 to 155 °C | < 10 nM | C=CC(=O)Nc1cc(Nc2ncc(N(C)C)c(-n3ccc4ccccc43)n2)c(OC)cc1N(C)CCN(C)C [Compound 10, N-(5-(5-(dimethylamino)-4-(1H-indol-1-yl)pyrimidin-2-ylamino)-2-((2-(dimethylamino)ethyl)(methyl)amino)-4-methoxyphenyl)acrylamide]
